Experimental data reported in paper PMC8861095, “Neurotoxicological profile of the hallucinogenic compound 25I-NBOMe” (Scientific Reports, 2022).

Tests used:
[1] = test system: H9c2 cells; details: in vitro; cited from earlier work
[2] = 25I-NBOMe distribution in rat blood plasma and brain regions (LC–MS/MS, ESI ion trap); type: in vivo
Protocol: Animals received single or multiple (once per day for seven days) subcutaneous injections of 25I-NBOMe dissolved in 0.9% NaCl at a dose of 0.3 mg/kg/2 ml. The control group was treated with 0.9% NaCl solution in the same way. All procedures were performed 72 h after the last injection. The time point of 72 h was chosen due to the possible generation of neurotoxicity via oxidative stress caused by reactive oxygen species (ROS). Exceptionally, for initial 25I-NBOMe brain distribution studies, rats received the drug in the dose of 1 and 10 mg/kg and were sacrificed 15 min after the drug administration. The rat blood plasma and brain tissues were collected immediately after rats’ decapitation. LSD (0.05 mg/kg, ip) was given daily for 7 days in a volume of 1 ml/kg, while MDMA 5 mg/kg, ip was injected in a volume of 2 ml/kg every second day (overall 4 injections).
The presence of 25I-NBOMe in the rat brain regions and blood serum was analyzed with electrospray ion trap mass spectrometry (Amazon SL from Bruker Daltonics, Bremen, Germany). At 72 h after the last injection with 25I-NBOMe or 15 min after injection of single low and high (1 and 10 mg/kg) dose, animals were sacrificed by decapitation. Brains were removed and the frontal cortex, striatum, nucleus accumbens, and hippocampus were dissected. The blood samples were also collected after 25I-NBOMe injections. Tissue samples were homogenized in an ice-cold 0.1 M HClO4, and were centrifuged at 10,000×g for 10 min at 4 °C. Blood was incubated for 30 min and then centrifuged for 15 min, 3000 rpm at 4 °C. The collected blood serum and tissue supernatants were frozen at − 80 °C until the time of mass spectrometry analysis. The value pH of samples was about 2. To purify the samples, solid phase extraction (SPE) columns MacroSpin Columns Silica C18 (The Nest Group, Inc., Southborough, USA) were used. Initially, columns were activated with 100% methanol (MeOH) solution by double centrifugation at 110×g for 1 min. Next, to remove MeOH, 2% acetonitrile (ACN) with 0.1% HCOOH was used. Subsequently, the columns were washed twice with the blood and tissue samples. To remove adenosine-5'-diphosphate (ADP) that has the same precursor ion as 25I-NBOMe the columns were washed twice with 2% ACN. Finally, to wash out 25I-NBOMe, the column was washed twice with 80% ACN with 0.1% HCOOH. Samples were left to dry in SpeedVac Vacuum Concentrator (Labconco, Kansas City, USA) overnight. The following day, samples were dissolved in 10% ACN with 0.1% HCOOH and injected to the LC–MS/MS system. The nanoLC-MS/MS analysis used to separate compounds was performed using the Ultimate 3000 nanocapillary chromatography system (Polygen, Gliwice, Poland). The separations were performed using a PepMap column (15 cm long, 75 μm ID, C18, 3 μm particle size, 100 Å pore size, Thermo-Scientific). The gradient was formed using 0.1% HCOOH in H2O (solvent A) and 0.1% HCOOH in ACN (solvent B), at a flow rate of 300 nl/min. The system was controlled by the Hystar software (Bruker Daltonics). A gradient was produced from 5 to 80% B in 100 min, then kept at 90% of phase B for 10 min. The mass spectrometry detection was performed in positive ion mode by electrospray ion trap mass spectrometry (Amazon SL from Bruker Daltonics, Bremen, Germany). The retention time of 25I-NBOMe was about 30.3 min. The acquired mass spectra were analyzed using the Bruker Data Analysis v. 4.0 software (Bruker Daltonics). The data presented in tables are calculated as intensity per 1 mg of wet tissue or 1 ml of blood serum, while mass spectra represent the real intensity of 25I-NBOMe-precursor ion from tissue samples with different mass.

[3] = test system: p21 (CDC42/RAC)-activated kinase 1 (PAK1); design: method as in PMID 32597268; details: cited from earlier work

Structure (SMILES): COc1cc(CCNCc2ccccc2OC)c(OC)cc1I [25I-NBOMe, 4-Iodo-2,5-dimethoxy-N-(2-methoxybenzyl)phenethylamine]
- Cell viability [1]: decreased the viability
- Accumulation in brain tissue after repeated administration ([2]; 0.3 mg/kg × 7 vs single dose, 72 h): caused drug accumulation in the brain tissue
- Intensity of the 25I-NBOMe precursor ion (~ 428 m/z) ([2]; blood plasma, single 1 mg/kg, 15 min after injection, per 1 ml of blood serum, one sample preparation): 9.24 × 10^4 a.u.
- Intensity of the 25I-NBOMe precursor ion (~ 428 m/z) ([2]; blood plasma, single 10 mg/kg, 15 min after injection, per 1 ml of blood serum, one sample preparation): 5.44 × 10^5 a.u.
- Crossing of the blood–brain barrier (BBB) ([2]; detected in blood serum and several brain regions 15 min after injection): easily crosses the blood–brain barrier (BBB)
- Intensity of the 25I-NBOMe precursor ion (~ 428 m/z) ([2]; frontal cortex, chronic 0.3 mg/kg × 7 sc, 72 h after last injection, per 1 mg of wet tissue): 2.93 × 10^4 a.u.
- Intensity of the 25I-NBOMe precursor ion (~ 428 m/z) ([2]; frontal cortex, single 0.3 mg/kg sc, 72 h after injection, per 1 mg of wet tissue): 2.25 × 10^3 a.u.
- Intensity of the 25I-NBOMe precursor ion (~ 428 m/z) ([2]; frontal cortex, single 1 mg/kg, 15 min after injection, per 1 mg of wet tissue): 2.94 × 10^4 a.u.
- Intensity of the 25I-NBOMe precursor ion (~ 428 m/z) ([2]; frontal cortex, single 10 mg/kg, 15 min after injection, per 1 mg of wet tissue): 4.36 × 10^5 a.u.
- Intensity of the 25I-NBOMe precursor ion (~ 428 m/z) ([2]; hippocampus, chronic 0.3 mg/kg × 7 sc, 72 h after last injection, per 1 mg of wet tissue): 1.72 × 10^4 a.u.
- Intensity of the 25I-NBOMe precursor ion (~ 428 m/z) ([2]; hippocampus, single 0.3 mg/kg sc, 72 h after injection, per 1 mg of wet tissue): 6.89 × 10^3 a.u.
- Intensity of the 25I-NBOMe precursor ion (~ 428 m/z) ([2]; hippocampus, single 1 mg/kg, 15 min after injection, per 1 mg of wet tissue): 1.60 × 10^4 a.u.
- Intensity of the 25I-NBOMe precursor ion (~ 428 m/z) ([2]; hippocampus, single 10 mg/kg, 15 min after injection, per 1 mg of wet tissue): 2.71 × 10^5 a.u.
- Intensity of the 25I-NBOMe precursor ion (~ 428 m/z) ([2]; nucleus accumbens, chronic 0.3 mg/kg × 7 sc, 72 h after last injection, per 1 mg of wet tissue): 9.00 × 10^3 a.u.
- Intensity of the 25I-NBOMe precursor ion (~ 428 m/z) ([2]; nucleus accumbens, single 0.3 mg/kg sc, 72 h after injection, per 1 mg of wet tissue): 3.85 × 10^3 a.u.
- Intensity of the 25I-NBOMe precursor ion (~ 428 m/z) ([2]; nucleus accumbens, single 1 mg/kg, 15 min after injection, per 1 mg of wet tissue): 2.32 × 10^7 a.u.
- Intensity of the 25I-NBOMe precursor ion (~ 428 m/z) ([2]; nucleus accumbens, single 10 mg/kg, 15 min after injection, per 1 mg of wet tissue): 7.15 × 10^7 a.u.
- Intensity of the 25I-NBOMe precursor ion (~ 428 m/z) ([2]; striatum, chronic 0.3 mg/kg × 7 sc, 72 h after last injection, per 1 mg of wet tissue): 2.12 × 10^3 a.u.
- Intensity of the 25I-NBOMe precursor ion (~ 428 m/z) ([2]; striatum, single 0.3 mg/kg sc, 72 h after injection, per 1 mg of wet tissue): 1.61 × 10^3 a.u.
- Intensity of the 25I-NBOMe precursor ion (~ 428 m/z) ([2]; striatum, single 1 mg/kg, 15 min after injection, per 1 mg of wet tissue): 5.97 × 10^4 a.u.
- Intensity of the 25I-NBOMe precursor ion (~ 428 m/z) ([2]; striatum, single 10 mg/kg, 15 min after injection, per 1 mg of wet tissue): 6.95 × 10^5 a.u.
- In vitro activity of PAK1 [3]: reduced
